Test results published in patent US12565473B2, “Coating composition” (priority 2020, dated 2026).

Key:
[1] = test system: mouse embryonic stem (mES) reporter cell lines; details: Bscl2 and Rtkn, absence and presence of S9
Bscl2 = assay: ToxTracker genotoxicity assay, Bscl2-GFP reporter induction
Rtkn = assay: ToxTracker genotoxicity assay, Rtkn-GFP reporter induction
[2] = with S9 rat liver extract, 3 h exposure and 24 h recovery, at 10% cytotoxicity
[3] = with S9 rat liver extract, 3 h exposure and 24 h recovery, at 25% cytotoxicity
[4] = with S9 rat liver extract, 3 h exposure and 24 h recovery, at 50% cytotoxicity
[5] = without S9 rat liver extract, 24 h exposure, at 10% cytotoxicity
[6] = without S9 rat liver extract, 24 h exposure, at 25% cytotoxicity
[7] = without S9 rat liver extract, 24 h exposure, at 50% cytotoxicity

SMILES | Genotoxicity test result (overall conclusion) [1] | Bscl 2 GFP reporter induction level (Bscl2; [2]) | Bscl 2 GFP reporter induction level (Bscl2; [3]) | Bscl 2 GFP reporter induction level (Bscl2; [4]) | Bscl 2 GFP reporter induction level (Bscl2; [5]) | Bscl 2 GFP reporter induction level (Bscl2; [6]) | Bscl 2 GFP reporter induction level (Bscl2; [7]) | Rtkn GFP reporter induction level (Rtkn; [2]) | Rtkn GFP reporter induction level (Rtkn; [3]) | Rtkn GFP reporter induction level (Rtkn; [4]) | Rtkn GFP reporter induction level (Rtkn; [5]) | Rtkn GFP reporter induction level (Rtkn; [6]) | Rtkn GFP reporter induction level (Rtkn; [7])
CCCCOCC(CN1CC1C)OC(=O)NCCCCCCn1c(=O)n(CCCCCCNC(=O)OC(COCCCC)CN2CC2C)c(=O)n(CCCCCCNC(=O)OC(COCCCC)CN2CC2C)c1=O (centres unmarked) [Composition 21] | non-genotoxic | 1.0 | 0.9 | 0.7 | 1.1 | 1.1 | 0.9 | 1.1 | 1.0 | 0.9 | 1.1 | 1.0 | 0.9
CCCCOCC(CN1CC1C)OC(=O)NCCCCCCn1c(=O)n(CCCCCCNC(=O)OC(COCCCC)CN2CC2C)c(=O)n(CCCCCCNC(=O)OC(COCCCC)CN2CC2C)c1=O (centres unmarked) [Composition 1] | non-genotoxic | 1.0 | 1.0 | 0.9 | 1.1 | 1.1 | 1.1 | 0.9 | 0.8 | 0.6 | 0.8 | 0.8 | 0.6
